Data published in US10065924B2, “Preparation and biological evaluation of viridicatumtoxin analogs” (priority 2014, dated 2018).
Converted amounts (≈) assume the structure as drawn.

Key:
[1] = system: Enterococcus faecalis S613; experiment: Micro-broth MIC assay, E. faecalis S613; type: cell-based; settings: for MIC: Enterococcus faecalis, S613, read-out: Minimum Inhibitory Concentration (MIC) E. faecalis S613; for Minimum Inhibitory Concentration (MIC) E. faecalis S613: Gram-(+), clinical strain, triplicate, no growth after 16-24 hours at 37° C.
Description: (§1) Four clinical strains were used for these studies, Enterococcus faecalis S613, Enterococcus faecium isolate 105, Methicillin-Resistant Staphylococcus aureus 371 (MRSA 371) and Acinetobacter baumannii AB210. Enterococcus strains were cultured in 80% Lysogeny Broth (LB) & 20% Brain Heart Infusion (BHI). MRSA 371 and AB210 were cultured in 100% LB.
(§2) Micro-broth MIC assays were performed in triplicate using 96-well plates. Wells were filled with 150 μL of broth media and inoculated with 2 μL of stationary phase culture. The concentration of the test antibiotics increased in 2-fold increments and ranged from 0.25-128 μg/mL. Plates were incubated overnight at 37° C. and the MICs were defined as the lowest drug concentration that had no growth after 16-24 hours.

E. faecium 501 = experiment: Micro-broth MIC assay, E. faecium 501; type: cell-based, Enterococcus faecium; settings: Gram-(+), clinical strain, triplicate, no growth after 16-24 hours at 37° C.; for MIC: Enterococcus faecium, 501, read-out: Minimum Inhibitory Concentration (MIC) E. faecium 501
[2] = system: Methicillin-Resistant Staphylococcus aureus 371 (MRSA 371); experiment: Micro-broth MIC assay, MRSA 371; type: cell-based; settings: for MIC: Staphylococcus aureus, MRSA, read-out: Minimum Inhibitory Concentration (MIC) MRSA 371; for Minimum Inhibitory Concentration (MIC) MRSA 371: Gram-(+), clinical strain, triplicate, no growth after 16-24 hours at 37° C.
Description: as §1, §2

[3] = system: Acinetobacter baumannii AB210; experiment: Micro-broth MIC assay, A. baumannii AB210; type: cell-based; settings: for MIC: Acinetobacter baumannii, AB210, read-out: Minimum Inhibitory Concentration (MIC) A. baumannii AB210; for Minimum Inhibitory Concentration (MIC) A. baumannii AB210: Gram-(−), clinical strain, triplicate, no growth after 16-24 hours at 37° C.
Description: as §1, §2

Compound: COc1cc(O)c2c(O)c3c(c4c2c1[C@]1(C4)C(C)=CCCC1(C)C)C(=O)[C@H]1CC(O)=C(C(N)=O)C(=O)[C@@]1(O)C3=O (racemic) [(±)-V2]
- MIC [1]: 0.5 µg/mL (≈ 0.913 µM)
- MIC (E. faecium 501): 0.5 µg/mL (≈ 0.913 µM)
- MIC [2]: 2 µg/mL (≈ 3.65 µM)
- MIC [3]: 64 µg/mL (≈ 117 µM)

Compound: COc1cc(O)c2c(O)c3c(c4c2c1[C@@]1(C4)C(C)=CCCC1(C)C)C(=O)[C@H]1CC(O)=C(C(N)=O)C[C@@]1(O)C3=O (racemic) [(±)-V3]
- MIC [1]: 4 µg/mL (≈ 7.5 µM)
- MIC (E. faecium 501): 2 µg/mL (≈ 3.75 µM)
- MIC [2]: 8 µg/mL (≈ 15 µM)
- MIC [3]: 64 µg/mL (≈ 120 µM)

Compound: COc1cc(OC)c2c(O)c3c(c4c2c1[C@@]1(C4)C(C)=CCCC1(C)C)C(=O)[C@H]1CC(O)=C(C(N)=O)C[C@@]1(O)C3=O (racemic) [(±)-V4]
- MIC [1]: 4 µg/mL (≈ 7.3 µM)
- MIC (E. faecium 501): 4 µg/mL (≈ 7.3 µM)
- MIC [2]: 4 µg/mL (≈ 7.3 µM)
- MIC [3]: 64 µg/mL (≈ 117 µM)

Compound: COc1cc(O)c2c(O)c3c(c4c2c1[C@]1(C4)C(C)=CCCC1(C)C)[C@H](O)[C@H]1CC(O)=C(C(N)=O)C(=O)[C@@]1(O)C3=O (racemic) [(±)-V5]
- MIC [1]: 1 µg/mL (≈ 1.82 µM)
- MIC (E. faecium 501): 1 µg/mL (≈ 1.82 µM)
- MIC [2]: 8 µg/mL (≈ 14.6 µM)
- MIC [3]: 64 µg/mL (≈ 116 µM)

Compound: COc1cc(O)c2c(O)c3c(c4c2c1[C@]1(C4)C(C)=CCCC1(C)C)[C@@H](O)[C@H]1CC(O)=C(C(N)=O)C(=O)[C@@]1(O)C3=O (racemic) [(±)-V6]
- MIC [1]: 0.5 µg/mL (≈ 0.91 µM)
- MIC (E. faecium 501): 0.5 µg/mL (≈ 0.91 µM)
- MIC [2]: 2 µg/mL (≈ 3.64 µM)
- MIC [3]: 64 µg/mL (≈ 116 µM)

Compound: COc1cc(O)c2c(O)c3c(c4c2c1[C@]1(C4)C(C)=CCCC1(C)C)[C@H](O)[C@@]1(O)CC(=O)C(C(N)=O)=C(O)[C@@]1(O)C3=O [(+)-2, viridicatumtoxin A]
- Minimum Inhibitory Concentration (MIC) E. faecalis S613 [1]: 1 µg/mL
- Minimum Inhibitory Concentration (MIC) E. faecium 501 (E. faecium 501): 1 µg/mL
- Minimum Inhibitory Concentration (MIC) MRSA 371 [2]: 4 µg/mL
- Minimum Inhibitory Concentration (MIC) A. baumannii AB210 [3]: 64 µg/mL

Compound: viridicatumtoxin B [(±)-1, reference compound]
- Minimum Inhibitory Concentration (MIC) E. faecalis S613 [1]: 1 µg/mL
- Minimum Inhibitory Concentration (MIC) E. faecium 501 (E. faecium 501): 0.5 µg/mL
- Minimum Inhibitory Concentration (MIC) MRSA 371 [2]: 4 µg/mL
- Minimum Inhibitory Concentration (MIC) A. baumannii AB210 [3]: 64 µg/mL
